Target: T1, P2Y12 receptor (Homo sapiens, UniProt Q9H244)
T1 construct: expressed in transfected cells; host or cells: CHO cells (membrane preparation)
Experiment: Functional inhibition of 2-Me-S-ADP induced P2Y12 signalling (35S-GTPγS binding, cell membranes)
Type: biochemical
Conditions: 35S-GTPγS assay, membranes, EC80 concentration of 2-methyl-thio-adenosine diphosphate, 30° C. for 45 min; read-out: GTPγS (IC50 μM)
Method in brief: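 Membranes (5 μg) from P2Y12-transfected CHO cells in pH 7.4 HEPES buffer with 10 μM GDP and saponin were stimulated with an EC80 of 2-methyl-thio-ADP plus compound and ^35S-GTPγS for 45 min at 30° C. Filter-retained ^35S-GTPγS was counted, normalised between agonist and no-agonist activity, and IC50 taken from a four-parameter fit.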

T1 sequence (Q9H244 whole entry): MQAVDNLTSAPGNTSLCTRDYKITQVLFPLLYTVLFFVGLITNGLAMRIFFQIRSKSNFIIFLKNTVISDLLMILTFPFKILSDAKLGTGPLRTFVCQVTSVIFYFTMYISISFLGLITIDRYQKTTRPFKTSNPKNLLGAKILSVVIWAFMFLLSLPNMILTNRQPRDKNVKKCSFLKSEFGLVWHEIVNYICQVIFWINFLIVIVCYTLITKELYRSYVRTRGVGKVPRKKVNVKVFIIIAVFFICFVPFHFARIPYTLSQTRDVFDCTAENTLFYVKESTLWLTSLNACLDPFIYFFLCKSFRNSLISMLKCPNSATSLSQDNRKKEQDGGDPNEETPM

Row | SMILES | IC50
1 | CCOC(=O)c1cc(C#N)c(N2CCC(C(=O)NS(=O)(=O)Cc3ccc(C(C)C)cc3)CC2)nc1CN1CCCCC1=O [Example 69, Ethyl 5-cyano-6-(4-{[(4-isopropylbenzyl)sulfonyl]carbamoyl}piperidin-1-yl)-2-[(2-oxopiperidin-1-yl)methyl]nicotinate] | 0.082 µM
2 | CCOC(=O)c1cc(Cl)c(N2CCC(C(=O)NS(=O)(=O)Cc3ccc(C)cc3)CC2)nc1CN1CCCC1=O [Example 87, Ethyl 5-chloro-6-(4-{[(4-methylbenzyl)sulfonyl]carbamoyl}piperidin-1-yl)-2-[(2-oxopyrrolidin-1-yl)methyl]nicotinate] | 0.037 µM
3 | CCOC(=O)c1cc(C#N)c(N2CCC(C(=O)NS(=O)(=O)Nc3ccc(F)cc3)CC2)nc1CN1CCCC1=O [Example 77, Ethyl 5-cyano-6-[4-({[(4-fluorophenyl)amino]sulfonyl}carbamoyl)piperidin-1-yl]-2-[(2-oxopyrrolidin-1-yl)methyl]nicotinate] | 0.017 µM
4 | CCOC(=O)c1cc(C#N)c(N2CCC(C(=O)NS(=O)(=O)Cc3ccc(C(C)(C)C)cc3)CC2)nc1CN1CCCCC1=O [Example 103, Ethyl 6-(4-{[(4-tert-butylbenzyl)sulfonyl]carbamoyl}piperidin-1-yl)-5-cyano-2-[(2-oxopiperidin-1-yl)methyl]nicotinate] | 0.376 µM
5 | CCOC(=O)c1cc(C#N)c(N2CCC(C(=O)NS(=O)(=O)Cc3ccccc3)CC2)nc1OC(C)=O [Example 2, Ethyl 2-acetoxy-6-{4-[(benzylsulfonyl)carbamoyl]piperidin-1-yl}-5-cyanonicotinate] | 0.024 µM
6 | CCOC(=O)c1cc(C#N)c(N2CCC(C(=O)NS(=O)(=O)Cc3ccc(F)cc3Cl)CC2)nc1CN1CCCC1=O [Example 43, Ethyl 6-(4-{[(2-chloro-4-fluorobenzyl)sulfonyl]carbamoyl}piperidin-1-yl)-5-cyano-2-[(2-oxopyrrolidin-1-yl)methyl]nicotinate] | 0.018 µM
7 | CCCOC(=O)c1cc(F)c(N2CCC(C(=O)NS(=O)(=O)Cc3ccccc3)CC2)nc1CN1CCCC1=O [Example 130, Propyl 6-{4-[(benzylsulfonyl)carbamoyl]piperidin-1-yl}-5-fluoro-2-[(2-oxopyrrolidin-1-yl)methyl]nicotinate] | 0.122 µM
8 | COc1ccc(CS(=O)(=O)NC(=O)C2CCN(c3nc(CN4CCCC4=O)c(C(=O)OC(C)C)cc3C#N)CC2)cc1 [Example 83, Isopropyl 5-cyano-6-(4-{[(4-methoxybenzyl)sulfonyl]carbamoyl}piperidin-1-yl)-2-[(2-oxopyrrolidin-1-yl)methyl]nicotinate] | 0.016 µM
9 | CCOC(=O)c1cc(C#N)c(N2CCC(C(=O)NS(=O)(=O)Cc3ccc(SC(F)(F)F)cc3)CC2)nc1CN1CCCC1=O [Example 66, Ethyl 5-cyano-2-[(2-oxopyrrolidin-1-yl)methyl]-6-{4-[({4-[(trifluoromethyl)thio]benzyl}sulfonyl)carbamoyl]piperidin-1-yl}nicotinate] | 0.033 µM
10 | CCOC(=O)c1cc(C#N)c(N2CCC(C(=O)NS(=O)(=O)Nc3ccccc3)CC2)nc1CN1CCCCC1=O [Example 64, Ethyl 6-{4-[(anilinosulfonyl)carbamoyl]piperidin-1-yl}-5-cyano-2-[(2-oxopiperidin-1-yl)methyl]nicotinate] | 0.14 µM
11 | CCOC(=O)c1cc(C#N)c(N2CCC(C(=O)NS(=O)(=O)Cc3ccc(C(F)(F)F)cc3)CC2)nc1CN1CCCCC1=O [Example 59, Ethyl 5-cyano-2-[(2-oxopiperidin-1-yl)methyl]-6-[4-({[4-(trifluoromethyl)benzyl]sulfonyl}carbamoyl)piperidin-1-yl]nicotinate] | 0.029 µM
12 | CCOC(=O)c1cc(C#N)c(N2CCC(C(=O)NS(=O)(=O)Cc3ccc(Cl)cc3Cl)CC2)nc1CN1CCCC1=O [Example 41, Ethyl 5-cyano-6-(4-{[(2,4-dichlorobenzyl)sulfonyl]carbamoyl}piperidin-1-yl)-2-[(2-oxopyrrolidin-1-yl)methyl]nicotinate] | 0.016 µM
13 | CCOC(=O)c1cc(C#N)c(N2CCC(C(=O)NS(=O)(=O)Cc3ccc(OC)cc3)CC2)nc1CN1CCCC1=O [Example 75, Ethyl 5-cyano-6-(4-{[(4-methoxybenzyl)sulfonyl]carbamoyl}piperidin-1-yl)-2-[(2-oxopyrrolidin-1-yl)methyl]nicotinate] | 0.0075 µM

Other lines, results leading:

Row | IC50 | SMILES
14 | 0.011 µM | CCOC(=O)CSc1nc(N2CCC(C(=O)NS(=O)(=O)Cc3ccccc3)CC2)c(C#N)cc1C(=O)OCC [Example 126, Ethyl 6-{4-[(benzylsulfonyl)carbamoyl]piperidin-1-yl}-5-cyano-2-[(2-ethoxy-2-oxoethyl)thio]nicotinate]
15 | 0.048 µM | CCOC(=O)c1cc(Cl)c(N2CCC(C(=O)NS(=O)(=O)Cc3ccccc3)CC2)nc1SCCNC(C)=O [Example 105, Ethyl 2-[(2-acetamidoethyl)thio]-6-{4-[(benzylsulfonyl)carbamoyl]piperidin-1-yl}-5-chloronicotinate]
16 | 0.077 µM | CCOC(=O)CSCc1nc(N2CCC(C(=O)NS(=O)(=O)Cc3ccccc3)CC2)c(C#N)cc1C(=O)OCC [Example 122, Ethyl 6-{4-[(benzylsulfonyl)carbamoyl]piperidin-1-yl}-5-cyano-2-{[(2-ethoxy-2-oxoethyl)thio]methyl}nicotinate]
17 | 0.022 µM | CCOC(=O)c1cc(C#N)c(N2CCC(C(=O)NS(=O)(=O)Cc3ccccc3)CC2)nc1CCC(C)=O [Example 112, Ethyl 6-{4-[(benzylsulfonyl)carbamoyl]piperidin-1-yl}-5-cyano-2-(3-oxobutyl)nicotinate]
18 | 0.102 µM | CC(C)OC(=O)c1cc(C#N)c(N2CCC(C(=O)NS(=O)(=O)Cc3ccccc3)CC2)nc1CN1CCCCC1=O [Example 70, Isopropyl 6-{4-[(benzylsulfonyl)carbamoyl]piperidin-1-yl}-5-cyano-2-[(2-oxopiperidin-1-yl)methyl]nicotinate]
19 | 0.011 µM | CCOC(=O)c1cc(C#N)c(N2CCC(C(=O)NS(=O)(=O)Cc3ccc(Cl)cc3)CC2)nc1CN1CCCC1=O [Example 39, Ethyl 6-(4-{[(4-chlorobenzyl)sulfonyl]carbamoyl}piperidin-1-yl)-5-cyano-2-[(2-oxopyrrolidin-1-yl)methyl]nicotinate]
20 | 0.545 µM | CCOC(=O)c1cc(C#N)c(N2CCC(C(=O)NS(=O)(=O)Cc3ccccc3)CC2)nc1CN1CCCC1 [Example 3, Ethyl 6-{4-[(benzylsulfonyl)carbamoyl]piperidin-1-yl}-5-cyano-2-(pyrrolidin-1-ylmethyl)nicotinate]
21 | 0.0097 µM | CCOC(=O)c1cc(C#N)c(N2CCC(C(=O)NS(=O)(=O)Cc3ccccc3)CC2)nc1CN1CCCC1=O [Example 33, Ethyl 6-{4-[(benzylsulfonyl)carbamoyl]piperidin-1-yl}-5-cyano-2-[(2-oxopyrrolidin-1-yl)methyl]nicotinate]
22 | 0.03 µM | CCOC(=O)c1cc(C#N)c(N2CCC(C(=O)NS(=O)(=O)Cc3ccccc3)CC2)nc1CN1CCCCC1=O [Example 56, Ethyl 6-{4-[(benzylsulfonyl)carbamoyl]piperidin-1-yl}-5-cyano-2-[(2-oxopiperidin-1-yl)methyl]nicotinate]
23 | 0.057 µM | CCOC(=O)c1cc(C#N)c(N2CCC(C(=O)NS(=O)(=O)Cc3ccccc3)CC2)nc1CSCC [Example 27, Ethyl 6-{4-[(benzylsulfonyl)carbamoyl]piperidin-1-yl}-5-cyano-2-[(ethylthio)methyl]nicotinate]

From patent US20080200448A1, “New Pyridine Analogues VIII 518” (ASTRAZENECA AB, priority 2007, published 2008)
